The source of these data is ChEMBL document CHEMBL4651402, “Screening of ~5500 FDA-approved drugs and clinical candidates for anti-SARS-CoV-2 activity” (2021).

The first assay concerns SARS-CoV-2. As to the kind of experiment: microbe, parasite or virus in culture. The following applies: Severe acute respiratory syndrome coronavirus 2, Vero C1008, 48 h.
`O=C1NCCN1CCN1CCC(c2cn(-c3ccc(F)cc3)c3ccc(Cl)cc23)CC1` [SERTINDOLE] had an IC50 above 20 µM.
As for `CCN(CC)CCOC(=O)C(c1ccccc1)c1ccccc1` [ADIPHENINE], the IC50 was above 20 µM.
The molecule `CN1CCc2cc(Cl)c(O)cc2[C@H]2c3ccccc3CC[C@@H]21` [ECOPIPAM] registered an IC50 above 20 µM.
Molecule `COc1ccnc2[nH]cc(C(=O)C(=O)N3CCN(C(=O)c4ccccc4)C[C@H]3C)c12` gave an IC50 above 20 µM.
The molecule `CC(=O)N(c1onc(C)c1C)S(=O)(=O)c1ccc(N)cc1` [SULFISOXAZOLE ACETYL] gave an IC50 above 20 µM.
Consider `COc1ccccc1N1CCN(CCCC(O)c2ccc(F)cc2)CC1` (configuration not stated) [ANISOPIROL], for which the IC50 was above 20 µM.
Consider `COc1ccc(CC(N)C(=O)NC2C(CO)OC(n3cnc4c(N(C)C)ncnc43)C2O)cc1` (configuration not stated), for which the IC50 was above 20 µM.
Still for that read-out and setting: to `C[C@]12CCC(=O)C=C1C=C[C@@H]1[C@@H]2CC[C@@]2(C)[C@H]1CC[C@@]21CCC(=O)O1` [CANRENONE] belongs above 20 µM; to `O=c1[nH]c(=O)n(C2CC(O)C(CO)O2)cc1I` (configuration not stated), above 20 µM; to `CCN(C/C=C\c1ccc(C2CCCCC2)c(Cl)c1)C1CCCCC1`, above 20 µM.
Turning to `O=c1ccc2ccccc2o1` [COUMARIN], the IC50 was above 20 µM.
As for `CN1CCC(O)(c2ccc(F)cc2)C(C(=O)c2ccc(F)cc2)C1` (configuration not stated) [FLAZALONE], the IC50 was above 20 µM.
On to `Nc1nccs1` [AMINOTHIAZOLE], for which the IC50 is above 20 µM.
In turn, `C[N+]1(CC2CC2)CC[C@]23c4c5ccc(O)c4O[C@H]2C(=O)CC[C@@]3(O)[C@H]1C5` (some centres not stated) [METHYLNALTREXONE] displayed an IC50 above 20 µM.
On the same count and under the same terms, the result for `CCCCC[C@H](O)/C=C/[C@H]1[C@H](O)CC(=O)[C@@H]1CCCCCCC(=O)O` [ALPROSTADIL] reads above 20 µM; that for `C=CCn1c(N)cc(=O)n(CC)c1=O` [AMINOMETRADINE], above 20 µM.
Turning to `CC(C)CCCC(C)C1CCC2C3CC[C@H]4CC(O)CCC4(C)C3CCC12C` (some centres not stated), the IC50 was above 20 µM.
As to `CC1(C)OC2(C)C(O)CC1CC2O` (configuration not stated) [EPOMEDIOL], the IC50 was above 20 µM.
Consider `CCc1c(C(=O)c2cc(C)cc(C)c2)n(CC2CC=CC2)c(=O)[nH]c1=O`, for which the IC50 is above 20 µM.
On the same count and under the same terms, the result for `CC[N+](CC)(CC(=O)Nc1c(C)cccc1C)Cc1ccccc1` [DENATONIUM] reads above 20 µM; that for `NC[C@H]1O[C@H](O[C@H]2[C@H](O)[C@@H](O[C@H]3O[C@H](CO)[C@@H](O)[C@H](N)[C@H]3O)[C@H](N)C[C@@H]2N)[C@H](O)[C@@H](O)[C@@H]1O` [KANAMYCIN], above 20 µM.
Consider `O=C(NCC(O)CO)c1c(I)c(C(=O)NCC(O)CO)c(I)c(N(CCO)C(=O)CO)c1I` (configuration not stated) [IOVERSOL], for which the IC50 was above 20 µM.
`C#C[C@]1(O)CC[C@H]2[C@@H]3CCC4=CC(=O)CC[C@]4(C)[C@H]3CC[C@@]21C` [ETHISTERONE]: the IC50 is above 20 µM.
In turn, `CC(=O)NC[C@H]1CN(c2ccc(-c3ccc(CNCc4cnn[nH]4)cc3)c(F)c2)C(=O)O1` [RADEZOLID] came in with an IC50 above 20 µM.
Consider `COc1ccccc1OCC(O)CN1CCN(CC(=O)Nc2c(C)cccc2C)CC1` (configuration not stated) [RANOLAZINE], for which the IC50 is above 20 µM.
`C[N+]12CCC34c5ccccc5N5C(=O)CC6OCC=C(C1)C(CC32)C6C54` (configuration not stated) displayed an IC50 above 20 µM.
Consider `Oc1cccc2cccnc12` [OXYQUINOLINE], for which the IC50 was above 20 µM.
On the same count and under the same terms, the result for `CCOc1ccccc1O[C@H](c1ccccc1)[C@H]1CNCCO1` reads above 20 µM; that for `CC(N)Cc1ccc(O)cc1` (configuration not stated) [HYDROXYAMPHETAMINE], above 20 µM; that for `CCC(=O)C(CCN(C)C)(c1ccccc1)c1ccccc1` [NORMETHADONE], above 20 µM.
The molecule `CC[N+](C)(CC)CCOC(=O)C(O)(c1ccccc1)C1CCCCC1` (configuration not stated) [OXYPHENONIUM] registered an IC50 above 20 µM.

Staying with this assay, now noted: Severe acute respiratory syndrome coronavirus 2, Vero C1008, 48 h, read-out: pIC50 (converted).
For the molecule `O=C1NCCN1CCN1CCC(c2cn(-c3ccc(F)cc3)c3ccc(Cl)cc23)CC1` [SERTINDOLE], the IC50 is above 20 µM.
On to `CCN(CC)CCOC(=O)C(c1ccccc1)c1ccccc1` [ADIPHENINE], for which the IC50 is above 20 µM.
Consider `CN1CCc2cc(Cl)c(O)cc2[C@H]2c3ccccc3CC[C@@H]21` [ECOPIPAM], for which the IC50 is above 20 µM.
Same read-out and setting: to `COc1ccnc2[nH]cc(C(=O)C(=O)N3CCN(C(=O)c4ccccc4)C[C@H]3C)c12` belongs above 20 µM.
On to `CC(=O)N(c1onc(C)c1C)S(=O)(=O)c1ccc(N)cc1` [SULFISOXAZOLE ACETYL], for which the IC50 is above 20 µM.
Regarding `COc1ccccc1N1CCN(CCCC(O)c2ccc(F)cc2)CC1` (configuration not stated) [ANISOPIROL], the IC50 is above 20 µM.
Regarding `COc1ccc(CC(N)C(=O)NC2C(CO)OC(n3cnc4c(N(C)C)ncnc43)C2O)cc1` (configuration not stated), the IC50 is above 20 µM.
On the same count and under the same terms, the result for `C[C@]12CCC(=O)C=C1C=C[C@@H]1[C@@H]2CC[C@@]2(C)[C@H]1CC[C@@]21CCC(=O)O1` [CANRENONE] reads above 20 µM; that for `O=c1[nH]c(=O)n(C2CC(O)C(CO)O2)cc1I` (configuration not stated), above 20 µM; that for `CCN(C/C=C\c1ccc(C2CCCCC2)c(Cl)c1)C1CCCCC1`, above 20 µM.
With `O=c1ccc2ccccc2o1` [COUMARIN], the IC50 was above 20 µM.
Still for that read-out and setting: the result for `CN1CCC(O)(c2ccc(F)cc2)C(C(=O)c2ccc(F)cc2)C1` (configuration not stated) [FLAZALONE] reads above 20 µM; that for `Nc1nccs1` [AMINOTHIAZOLE], above 20 µM.
Turning to `C[N+]1(CC2CC2)CC[C@]23c4c5ccc(O)c4O[C@H]2C(=O)CC[C@@]3(O)[C@H]1C5` (some centres not stated) [METHYLNALTREXONE], the IC50 was above 20 µM.
`CCCCC[C@H](O)/C=C/[C@H]1[C@H](O)CC(=O)[C@@H]1CCCCCCC(=O)O` [ALPROSTADIL]: the IC50 is above 20 µM.
As for `C=CCn1c(N)cc(=O)n(CC)c1=O` [AMINOMETRADINE], the IC50 is above 20 µM.
`CC(C)CCCC(C)C1CCC2C3CC[C@H]4CC(O)CCC4(C)C3CCC12C` (some centres not stated): the IC50 was above 20 µM.
The same measure, in the same setting: the result for `CC1(C)OC2(C)C(O)CC1CC2O` (configuration not stated) [EPOMEDIOL] reads above 20 µM; that for `CCc1c(C(=O)c2cc(C)cc(C)c2)n(CC2CC=CC2)c(=O)[nH]c1=O`, above 20 µM; that for `CC[N+](CC)(CC(=O)Nc1c(C)cccc1C)Cc1ccccc1` [DENATONIUM], above 20 µM.
Regarding `NC[C@H]1O[C@H](O[C@H]2[C@H](O)[C@@H](O[C@H]3O[C@H](CO)[C@@H](O)[C@H](N)[C@H]3O)[C@H](N)C[C@@H]2N)[C@H](O)[C@@H](O)[C@@H]1O` [KANAMYCIN], the IC50 is above 20 µM.
The same measure, in the same setting: the result for `O=C(NCC(O)CO)c1c(I)c(C(=O)NCC(O)CO)c(I)c(N(CCO)C(=O)CO)c1I` (configuration not stated) [IOVERSOL] reads above 20 µM.
The same measure, in the same setting: the result for `C#C[C@]1(O)CC[C@H]2[C@@H]3CCC4=CC(=O)CC[C@]4(C)[C@H]3CC[C@@]21C` [ETHISTERONE] reads above 20 µM.
On the same count and under the same terms, the result for `CC(=O)NC[C@H]1CN(c2ccc(-c3ccc(CNCc4cnn[nH]4)cc3)c(F)c2)C(=O)O1` [RADEZOLID] reads above 20 µM; that for `COc1ccccc1OCC(O)CN1CCN(CC(=O)Nc2c(C)cccc2C)CC1` (configuration not stated) [RANOLAZINE], above 20 µM; that for `C[N+]12CCC34c5ccccc5N5C(=O)CC6OCC=C(C1)C(CC32)C6C54` (configuration not stated), above 20 µM.
For the molecule `Oc1cccc2cccnc12` [OXYQUINOLINE], the IC50 is above 20 µM.
As to `CCOc1ccccc1O[C@H](c1ccccc1)[C@H]1CNCCO1`, the IC50 is above 20 µM.
The same measure, in the same setting: the result for `CC(N)Cc1ccc(O)cc1` (configuration not stated) [HYDROXYAMPHETAMINE] reads above 20 µM; that for `CCC(=O)C(CCN(C)C)(c1ccccc1)c1ccccc1` [NORMETHADONE], above 20 µM.
Turning to `CC[N+](C)(CC)CCOC(=O)C(O)(c1ccccc1)C1CCCCC1` (configuration not stated) [OXYPHENONIUM], the IC50 was above 20 µM.
